According to patent publication US20230203058A1, “MACROCYCLIC DIAMINE DERIVATIVES AS ENT INHIBITORS FOR THE TREATMENT OF CANCERS, AND COMBINATION THEREOF WITH ADENOSINE RECEPTOR ANTAGONISTS” (ITEOS BELGIUM SA, priority 2020, published 2023):

Biological target: T1, human ENT1 (Homo sapiens, UniProt Q99808)
T1 sequence (Q99808 1-456): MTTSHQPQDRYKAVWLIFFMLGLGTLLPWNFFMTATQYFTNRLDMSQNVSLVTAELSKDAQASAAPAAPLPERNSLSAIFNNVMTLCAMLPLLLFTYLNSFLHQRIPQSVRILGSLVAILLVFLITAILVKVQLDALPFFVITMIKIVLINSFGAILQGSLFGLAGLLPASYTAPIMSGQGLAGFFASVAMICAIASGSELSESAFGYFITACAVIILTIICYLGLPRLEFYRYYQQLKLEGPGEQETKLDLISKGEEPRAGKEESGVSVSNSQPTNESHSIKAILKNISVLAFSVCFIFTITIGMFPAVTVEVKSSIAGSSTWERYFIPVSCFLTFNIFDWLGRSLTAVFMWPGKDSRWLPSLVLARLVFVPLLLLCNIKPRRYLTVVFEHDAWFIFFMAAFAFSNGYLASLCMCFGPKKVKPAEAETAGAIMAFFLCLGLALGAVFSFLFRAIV
Assay: ENT1 binding assay (competition with Sahenta-DY647 on JAR cells)
Design: JAR cells expressing ENT1 were bought from ATCC® (HTB-144TM); host or cells: JAR cells (human choriocarcinoma line; whole cells)
Conditions: competition with Sahenta-DY647 100 nM, 4° C.
Method: The present assay aims at showing that the compounds of the present invention can bind to human ENT1. The principle of the assay is a competition between the compounds of this invention and Sahenta-DY647, an ENT1 inhibitor that emits fluorescence (Ex = 630 nm, Em = 670 nm). By measuring the fluorescence at the end of the assay we could assess the binding potency of the compounds of the present invention.
JAR cells expressing ENT1 were bought from ATCC® (HTB-144TM). Cells were cultured in RPMI 1640 medium (LONZA®, #BE12-702F/U1) supplemented with 10% FBS (GIBCO®, #10270-106), 10 mM Hepes (LONZA®, #BE17-737E), 1 mM Sodium Pyruvate (LONZA®, #BE13-115E) and 2% Penicillin/Streptomycin (LONZA®, #DE17-603E) at 37° C. and 5% CO2. The assay was conducted on the following buffer: HBSS (LONZA®, #LO-527F) supplemented with 10 mM Hepes (LONZA®, #BE17-737E) and 0.1% BSA (Miltenyi®, #130-091-376) on the day of the assay. JAR cells were resuspended in the described buffer. Compounds of the present invention and Sahenta-DY647 were diluted 200X in the described buffer.
A total of 50000 cells were pre-incubated for 30 min at 4° C. with the compounds of the present invention before adding the corresponded IC90 of Sahenta-DY647 (100 nM) and incubate once more for 30 min at 4° C. The total volume of the reaction was 100 µL (50 µL of cells, 25 µL of the compounds of the present invention and 25 µL of Sahenta-DY647) in a 96 well plate, U-bottom (Greiner®, #650-180). The plates were washed 2X by centrifugation (4 min, 400 rcf at 4° C.) in the same buffer. Cells were resuspended in 70 µL of the buffer and 50 µL was transferred to a Black 384 Optiplate (PerkinElmer®, #6007279). Fluorescence (Ex = 630 nm, Em = 670 nm) was acquired on a Spectramax i3x (Molecular Devices®).

Structure (SMILES)	IC50
COc1cc(C(=O)O[C@H]2CCCOc3cccc(c3)C(=O)OCCCN3CCCN(CC2)CC3)cc(OC)c1OC (stereo in doubt) [Compound 17, (12S)-6-oxo-5,8-dioxa-1(1,4)-diazepana-7(1,3)-benzenacyclotetradecaphane-12-yl 3,4,5-trimethoxybenzoate]	> 500 nM
O=C1NCCCN2CCCN(CC[C@@H](OC(=O)c3ccccc3)CCCOc3cccc1c3)CC2 (stereo in doubt) [Compound 19, (12S)-6-oxo-8-oxa-5-aza-1(1,4)-diazepana-7(1,3)-benzenacyclotetradecaphane-12-yl benzoate]	> 500 nM
O=C1NCCCN2CCCN(CC[C@H](OC(=O)c3ccccc3)CCCOc3cccc1c3)CC2 (stereo in doubt) [Compound 20, (12R)-6-oxo-8-oxa-5-aza-1(1,4)-diazepana-7(1,3)-benzenacyclotetradecaphane-12-yl benzoate]	> 500 nM
COc1cc2cc(c1OC)OCCC[C@H](O/N=C/c1ccccc1)CCN1CCCN(CCCNC2=O)CC1 (stereo in doubt) [Compound 116, (E)-benzaldehyde O-((12S)-74,75-dimethoxy-6-oxo-8-oxa-5-aza-1(1,4)-diazepana-7(1,3)-benzenacyclotetradecaphane-12-yl) oxime]	> 500 nM
COc1cc(C(=O)NC2CCCOc3cc(cc(OC)c3OC)C(=O)OCCCN3CCCN(CC2)CC3)cc(OC)c1OC (stereo not drawn) [Compound 3, N-(74,75-dimethoxy-6-oxo-5,8-dioxa-1(1,4)-diazepana-7(1,3)-benzenacyclotetradecaphane-12-yl)-3,4,5-trimethoxybenzamide]	> 500 nM
COc1cc(C(=O)O[C@H]2CCCOc3cc(cc(OC)c3OC)C(=O)NCCCN3CCCN(CC2)CC3)cc(OC)c1OC [Compound 9, (12S)-74,75-dimethoxy-6-oxo-8-oxa-5-aza-1(1,4)-diazepana-7(1,3)-benzenacyclotetradecaphane-12-yl 3,4,5-trimethoxybenzoate]	> 500 nM
COc1cc(C(=O)O[C@H]2CCCOc3cc(cc(OC)c3OC)C(=O)N(C)CCCN3CCCN(CC2)CC3)cc(OC)c1OC [Compound 12, (12S)-74,75-dimethoxy-5-methyl-6-oxo-8-oxa-5-aza-1(1,4)-diazepana-7(1,3)-benzenacyclotetradecaphane-12-yl 3,4,5-trimethoxybenzoate]	> 500 nM
COc1cc(C(=O)O[C@H]2CCCn3ncc4c(Cl)cc(cc43)C(=O)NCCCN3CCCN(CC2)CC3)cc(OC)c1OC [Compound 15, (10S)-14-chloro-2-oxo-11H-3-aza-1(6,1)-indazola-7(1,4)-diazepanacyclotridecaphane-10-yl 3,4,5-trimethoxybenzoate]	> 500 nM
COc1cc(C(=O)O[C@@H]2CCCOc3cc(cc(Cl)c3Cl)C(=O)OCCCN3CCCN(CC2)CC3)cc(OC)c1OC [Compound 23, (12R)-74,75-dichloro-6-oxo-5,8-dioxa-1(1,4)-diazepana-7(1,3)-benzenacyclotetradecaphane-12-yl 3,4,5-trimethoxybenzoate]	20 to 500 nM
COc1cc2cc(c1OC)OCCCC(OC(=O)c1ccc(Cl)c(Cl)c1)CCN1CCCN(CCCOC2=O)CC1 (stereo not drawn) [Compound 24, 74,75-dimethoxy-6-oxo-5,8-dioxa-1(1,4)-diazepana-7(1,3)-benzenacyclotetradecaphane-12-yl 3,4-dichlorobenzoate]	20 to 500 nM
COc1cc(C(=O)O[C@H]2CCCn3cc4c(Cl)cc(cc4n3)C(=O)NCCCN3CCCN(CC2)CC3)cc(OC)c1OC [Compound 25, (11Z, 16E, 10S)-14-chloro-2-oxo-12 H-3-aza-1(6,2)-indazola-7(1,4)-diazepanacyclotridecaphane-10-yl 3,4,5-trimethoxybenzoate]	> 500 nM
COc1cc(C(=O)O[C@@H]2CCCn3cc4c(Cl)cc(cc4n3)C(=O)NCCCN3CCCN(CC2)CC3)cc(OC)c1OC [Compound 26, (11Z, 16E, 10R)-14-chloro-2-oxo-12H-3-aza-1(6,2)-indazola-7(1,4)-diazepanacyclotridecaphane-10-yl 3,4,5-trimethoxybenzoate]	> 500 nM
COc1cc2cc(c1OC)OCCCC(OC(=O)c1ccc(OC(F)(F)F)cc1)CCN1CCCN(CCCOC2=O)CC1 (stereo not drawn) [Compound 30, 74,75-dimethoxy-6-oxo-5,8-dioxa-1(1,4)-diazepana-7(1,3)-benzenacyclotetradecaphane-12-yl 4-(trifluoromethoxy)benzoate]	20 to 500 nM
COc1cc2cc(c1OC)OCCCC(O)CCN1CCCN(CCCOC2=O)CC1 (stereo not drawn) [Compound 38, 12-hydroxy-74,75-dimethoxy-5,8-dioxa-1(1,4)-diazepana-7(1,3)-benzenacyclotetradecaphan-6-one]	> 500 nM
COc1cc2cc(c1OC)OCCC[C@H](O)CCN1CCCN(CCCOC2=O)CC1 [Compound 40, (12S)-12-hydroxy-74,75-dimethoxy-5,8-dioxa-1(1,4)-diazepana-7(1,3)-benzenacyclotetradecaphan-6-one]	> 500 nM

Further lines, results first:

IC50	Structure (SMILES)
20 to 500 nM	COc1cc(C(=O)O[C@@H]2CCCn3ncc4c(Cl)cc(cc43)C(=O)NCCCN3CCCN(CC2)CC3)cc(OC)c1OC [Compound 16, (10R)-14-chloro-2-oxo-11H-3-aza-1(6, 1)-indazola-7(1,4)-diazepanacyclotridecaphane-10-yl 3,4,5-trimethoxybenzoate]
1 to 20 nM	COc1cc(C(=O)OC2CCCOc3cc(cc(Cl)c3Cl)C(=O)OCCCN3CCCN(CC2)CC3)cc(OC)c1OC (stereo not drawn) [Compound 21, 74,75-dichloro-6-oxo-5,8-dioxa-1(1,4)-diazepana-7(1,3)-benzenacyclotetradecaphane-12-yl 3,4,5-trimethoxybenzoate]
20 to 500 nM	COc1cc(C(=O)O[C@H]2CCCOc3cc(cc(Cl)c3Cl)C(=O)OCCCN3CCCN(CC2)CC3)cc(OC)c1OC [Compound 22, (12S)-74,75-dichloro-6-oxo-5,8-dioxa-1(1,4)-diazepana-7(1,3)-benzenacyclotetradecaphane-12-yl 3,4,5-trimethoxybenzoate]
1 to 20 nM	COc1cc2cc(c1OC)OCCCC(OC(=O)c1ccc(F)c(Cl)c1)CCN1CCCN(CCCOC2=O)CC1 (stereo not drawn) [Compound 27, 74,75-dimethoxy-6-oxo-5,8-dioxa-1(1,4)-diazepana-7(1,3)-benzenacyclotetradecaphane-12-yl 3-chloro-4-fluorobenzoate]
1 to 20 nM	COc1cc(C(=O)O[C@@H]2CCCOc3cc(cc(Cl)c3C(N)=O)C(=O)NCCCN3CCCN(CC2)CC3)cc(OC)c1OC [Compound 28, (12R)-74-carbamoyl-75-chloro-6-oxo-8-oxa-5-aza-1(1,4)-diazepana-7(1,3)-benzenacyclotetradecaphane-12-yl 3,4,5-trimethoxybenzoate]
1 to 20 nM	COc1cc2cc(c1OC)OCCCC(OC(=O)c1ccc(F)cc1)CCN1CCCN(CCCOC2=O)CC1 (stereo not drawn) [Compound 29, 74,75-dimethoxy-6-oxo-5,8-dioxa-1(1,4)-diazepana-7(1,3)-benzenacyclotetradecaphane-12-yl 4-fluorobenzoate]
1 to 20 nM	COc1cc2cc(c1OC)OCCC[C@@H](OC(=O)c1ccccc1)CCN1CCCN(CCCOC2=O)CC1 [Compound 31, (12R)-74,75-dimethoxy-6-oxo-5,8-dioxa-1(1,4)-diazepana-7(1,3)-benzenacyclotetradecaphane-12-yl benzoate]
1 to 20 nM	COc1cc(C(=O)O[C@@H]2CCCOc3cc(cc(OC)c3OC)C(=O)OCCCC3CCN(CC3)CC2)cc(OC)c1OC [Compound 34, (R)-74,75-dimethoxy-6-oxo-5,8-dioxa-1(4,1)-piperidina-7(1,3)-benzenacyclotetradecaphane-12-yl 3,4,5-trimethoxybenzoate]
1 to 20 nM	COc1cc2cc(c1OC)OCCC[C@@H](OC(=O)c1ccccc1)CCN(C)CCN(C)CCCOC2=O [Compound 35, (R)-15,16-dimethoxy-9,12-dimethyl-17-oxo-2,16-dioxa-9,12-diaza-1(1,3)-benzenacycloheptadecaphane-6-yl benzoate]
